Test results: patent publication US5684205A, “Use of substituted cyclopentane- di- and -triones” (Bayer Aktiengesellschaft, priority 1994, dated 1997)

Test system: airway epithelial cell line 4MBr-5
Experiment: 36Cl chloride efflux inhibition in airway epithelial cell line 4MBr-5
Type: cell-based
Details: 20 min, 4MBr-5 cells; for inhibition at 10 µg/mL: 10 μg/ml test compound, 20 minutes efflux, expressed as a percentage of the maximal inhibition observed with NPPB
Procedure: This compound provides a suitable reference standard against which to judge other chloride channel blockers. […] In the test described below maximal inhibition of chloride efflux is observed at 300 μM, with 20% inhibition evident at the standard test concentration of 10 μg/ml.
The airway epithelial cell line 4MBr-5 was obtained from ATCC and cells were cultured in 35 mm diameter wells on six well plates until cell layers were confluent. Cells were loaded with Na^36 CI solutions at 2.5 μCi/well after washing the cell monolayer free of […] culture medium. Washing and loading were performed in Hepes buffer (pH 7.4) containing 130 mM NaCI, 5.4 mM KCI, 1.8 mM CaCI2, 1.0 mM NaH2 PO4, 0.8 mM MgSO4 and 5.5 mM glucose. After a loading period of 60 minutes the cell layer was rapidly washed with 50 mM Hepes in 241 mM sucrose containing […] MgSO4 and the buffer replaced with 2 ml of ^36 CI^- free buffer containing 10 μg/ml test compound, or vehicle control. (Test compound was also present for the final ten minutes of the loading procedure). After 20 minutes efflux was stopped and the radioactivity remaining in the cells determined by liquid scintillation spectrometry after lysis of the cells. After subtraction of the counts found in cells treated with vehicle the increased counts were compared to the corresponding value observed with NPPB and expressed as a percentage of the maximal inhibition.

| Structure (SMILES) | inhibition at 10 µg/mL [%] | IC (maximal) (36Cl efflux, read-out: concentration at which maximal inhibition of chloride efflux is observed) [µM] |
| --- | --- | --- |
| COc1ccc(C=C2C(=O)C(O)=C(c3ccccc3)C2=O)cc1 [2/24] | 28.6 |  |
| O=C1C(=Cc2ccc(Cl)cc2Cl)C(=O)C(c2ccccc2)=C1O [15/36] | 37.7 |  |
| O=C1C(=Cc2ccc(C(F)(F)F)cc2)C(=O)C(c2ccccc2)=C1O [16/37] | 58.2 |  |
| O=C1C(=Cc2ccc(-c3ccccc3)cc2)C(=O)C(c2ccccc2)=C1O [17/38] | 83.5 |  |
| COc1ccc(C2=C(O)C(=O)C(=Cc3ccccc3)C2=O)cc1 [18/1] | 24 |  |
| O=C1C(=Cc2ccccc2)C(=O)C(c2ccc(Cl)cc2)=C1O [19/39] | 31.1 |  |
| CCN(CC)c1ccc(C=C2C(=O)C(O)=C(c3ccccc3)C2=O)cc1 [20/40] | 22.7 |  |
| O=C1C(=Cc2ccc(OCc3ccccc3)cc2)C(=O)C(c2ccccc2)=C1O [21/41] | 50.6 |  |
| COc1ccc(C2=C(O)C(=O)C(=Cc3ccc(Cl)c(Cl)c3)C2=O)cc1 [22/42] | 65 |  |
| O=C1C(=Cc2ccccc2O)C(=O)C(c2ccccc2)=C1O [23/43] | 36.4 |  |
| O=C(O)c1cc([N+](=O)[O-])ccc1NCCCc1ccccc1 [NPPB, 2-(3-phenylpropyl)amino-5-nitrobenzoic acid, reference compound] | 20 | 300 |
